Measured values: BindingDB's records for doi:10.1021/jm00090a009 (Takeda Chemical Industries, 1992)

Target: Thromboxane A2 receptor (Cavia porcellus)
Assay: Compound was evaluated for its ability to inhibit specific binding of [3H]U-46619 to Thromboxane A2/ Prostaglandin H2 receptor in guinea pig platelet membrane

IC50	SMILES
30 nM	Cc1c(C)c(C(CCCCCC(=O)O)c2ccc(F)cc2)c(O)c(C)c1C=O (configuration not stated)
1400 nM	Cc1c(C)c(O)c(C(=CCCCCC(=O)O)c2ccc(F)cc2)c(C)c1O
